Measured values taken from US9849130B2 (KamTek, Inc., priority 2014, dated 2017).
Values after ≈ are worked out from the molar mass of the structure shown. Values joined by “and” are separate entries in the source; they are usually repeats but may differ in a detail not shown here. Equal values may be shown once. Read-outs that look alike come from different tables or passages of the source.

Key:
[1] = test system: Clostridium difficile (CD) strains; test: microbe, parasite or virus in culture; assay type: cell-based
[2] = test system: C. perfringens MH310; test: microbe, parasite or virus in culture; assay type: cell-based; conditions: Clostridium perfringens, MH310, C. perfringens MH310
[3] = test system: C. difficile; test: Minimum bactericidal concentration (MBC) against C. difficile; assay type: cell-based, Clostridium difficile; conditions: for MBC: Clostridioides difficile
[4] = test system: CD strains; test: In vitro activity of CFM + additional antimicrobial agent against CD (MIC alone/combination, FIC, ΣFIC); assay type: cell-based, Clostridium difficile; conditions: for MIC: Clostridioides difficile, read-out: MIC alone
[5] = Test 1, CD strain VPI 10463, CFM + VAN
[6] = Test 9, CD strain NR32885, CFM + VAN
[7] = Test 11, CD strain NR32885, CFM + VAN
[8] = Test 12, CD strain NR32885, CFM + MET
[9] = Test 18, CD strain NR32888, CFM + VAN
[10] = Test 2, CD strain VPI 10463, CFM + VAN
[11] = Test 3, CD strain VPI 10463, CFM + MET
[12] = Test 4, CD strain VPI 10463, CFM + MET
[13] = Test 5, CD strain NR32889, CFM + VAN
[14] = Test 6, CD strain NR32890, CFM + VAN
[15] = Test 7, CD strain NR32885, CFM + VAN
[16] = Test 8, CD strain NR32885, CFM + MET
[17] = Test 10, CD strain NR32885, CFM + MET
[18] = Test 13, CD strain BAA1805 (BI/NAP1/027), CFM + VAN
[19] = Test 14, CD strain BAA1805 (BI/NAP1/027), CFM + MET
[20] = Test 15, CD strain BAA1805 (BI/NAP1/027), CFM + MET
[21] = Test 16, CD strain BAA1805 (BI/NAP1/027), CFM + VAN
[22] = Test 17, CD strain BAA1805 (BI/NAP1/027), CFM + MET

CC(C)N=c1cc2n(-c3ccc(Cl)cc3)c3ccccc3nc-2cc1Nc1ccc(Cl)cc1 [CFM, 3-(p-chloroanilino)-10-(p-chlorophenyl)-2,10-dihydro-2-iso-propyliminophenazine]
MIC50 ([1]; Clostridioides difficile): 0.062 µg/mL (≈ 0.131 µM) | MIC90 ([1]; Clostridioides difficile): 0.25 µg/mL (≈ 0.528 µM) | MIC ([1]; Clostridioides difficile, BAA1805, CD isolate BAA1805 (hyper-virulent strain BI/NAP1/027), Table 6): 0.125 µg/mL (≈ 0.264 µM) | MIC ([1]; Clostridioides difficile, BAA1805, CD strain BAA1805 (hyper-virulent strain BI/NAP1/027), BB): 0.125 µg/mL (≈ 0.264 µM) | MIC ([1]; Clostridioides difficile, BAA1805, CD strain BAA1805 (hyper-virulent strain BI/NAP1/027), BHI): 0.125 µg/mL (≈ 0.264 µM) | MIC50 ([1]; n = 37): 0.062 µg/mL (≈ 0.131 µM) | MIC90 ([1]; n = 37): 0.25 µg/mL (≈ 0.528 µM) | MIC Range ([1]; n = 37): ≦0.031-0.25 μg/ml | MIC ([2]; BB): 0.5 µg/mL (≈ 1.06 µM) | MIC ([2]; BHI): 1 µg/mL (≈ 2.11 µM) | MBC/MIC [3]: 2 and 1 | MBC/MIC ratio range [3]: 1-2 | MBC/MIC ([3]; CD isolate BAA1805 (hyper-virulent strain BI/NAP1/027)): 1 | MBC ([3]; BAA1805): 0.125 µg/mL (≈ 0.264 µM) | MBC ([3]; CD isolate NR13430, read-out: MBC): 0.25 µg/mL (≈ 0.528 µM) | MBC ([3]; CD isolate NR13432, read-out: MBC): 0.25 µg/mL (≈ 0.528 µM) | MBC ([3]; CD isolate NR13437, read-out: MBC): 0.25 µg/mL (≈ 0.528 µM) | MBC ([3]; CD isolate NR32882, read-out: MBC): 0.5 µg/mL (≈ 1.06 µM) | MBC ([3]; CD isolate NR32883, read-out: MBC): 0.5 µg/mL (≈ 1.06 µM) | MBC ([3]; CD isolate NR332884, read-out: MBC): 0.25 µg/mL (≈ 0.528 µM) | MBC ([3]; CD isolate VPI10463, read-out: MBC): 0.25 µg/mL (≈ 0.528 µM) | MIC ([4]; BAA1805, Test 13, CD strain BAA1805 (BI/NAP1/027), CFM + VAN): 0.25 µg/mL | MIC ([4]; BAA1805, Test 14, CD strain BAA1805 (BI/NAP1/027), CFM + MET): 0.25 µg/mL | MIC ([4]; BAA1805, Test 15, CD strain BAA1805 (BI/NAP1/027), CFM + MET): 0.25 µg/mL | MIC ([4]; BAA1805, Test 16, CD strain BAA1805 (BI/NAP1/027), CFM + VAN): 0.25 µg/mL | MIC ([4]; BAA1805, Test 17, CD strain BAA1805 (BI/NAP1/027), CFM + MET): 0.25 µg/mL | MIC [4, 5]: 0.25 µg/mL | MIC [4, 6]: 0.25 µg/mL | MIC [4, 7]: 0.25 µg/mL | MIC [4, 8]: 0.25 µg/mL | MIC [4, 9]: 0.25 µg/mL | MIC ([4]; Test 19, CD strain NR32888, CFM + MET): 0.25 µg/mL | MIC ([4]; Test 20, CD strain NR32888, CFM + VAN): 0.25 µg/mL | MIC ([4]; Test 21, CD strain NR32888, CFM + MET): 0.25 µg/mL | MIC [4]: 0.125 µg/mL | FIC [4, 5]: 0.124 | MIC combination [4, 5]: 0.031 µg/mL | ΣFIC ([4]; Test 1, CD strain VPI 10463, sum for combination CFM + VAN): 0.374 | FIC [4, 10]: 0.0312 | MIC combination [4, 10]: 0.0039 µg/mL | ΣFIC ([4]; Test 2, CD strain VPI 10463, sum for combination CFM + VAN): 0.281 | FIC [4, 11]: 0.5 | MIC alone [4, 11]: 0.125 µg/mL | MIC combination [4, 11]: 0.062 µg/mL | ΣFIC ([4]; Test 3, CD strain VPI 10463, sum for combination CFM + MET): 1 | FIC [4, 12]: 0.5 | MIC alone [4, 12]: 0.125 µg/mL | MIC combination [4, 12]: 0.062 µg/mL | ΣFIC ([4]; Test 4, CD strain VPI 10463, sum for combination CFM + MET): 1 | FIC [4, 13]: 1 | MIC alone [4, 13]: 0.125 µg/mL | MIC combination [4, 13]: 0.125 µg/mL | ΣFIC ([4]; Test 5, CD strain NR32889, sum for combination CFM + VAN): 2 | FIC [4, 14]: 0.25 | MIC alone [4, 14]: 0.125 µg/mL | MIC combination [4, 14]: 0.031 µg/mL | ΣFIC ([4]; Test 6, CD strain NR32890, sum for combination CFM + VAN): 0.75 | FIC [4, 15]: 0.5 | MIC alone [4, 15]: 0.125 µg/mL | MIC combination [4, 15]: 0.062 µg/mL | ΣFIC ([4]; Test 7, CD strain NR32885, sum for combination CFM + VAN): 1 | FIC [4, 16]: 0.25 | MIC alone [4, 16]: 0.125 µg/mL | MIC combination [4, 16]: 0.031 µg/mL | ΣFIC ([4]; Test 8, CD strain NR32885, sum for combination CFM + MET): 0.375 | FIC [4, 6]: 0.25 | MIC combination [4, 6]: 0.062 µg/mL | ΣFIC ([4]; Test 9, CD strain NR32885, sum for combination CFM + VAN): 0.5 | FIC [4, 17]: 0.031 | MIC alone [4, 17]: 0.125 µg/mL | MIC combination [4, 17]: 0.0039 µg/mL | ΣFIC ([4]; Test 10, CD strain NR32885, sum for combination CFM + MET): 0.281 | FIC [4, 7]: 0.25 | MIC combination [4, 7]: 0.062 µg/mL | ΣFIC ([4]; Test 11, CD strain NR32885, sum for combination CFM + VAN): 0.5 | FIC [4, 8]: 0.031 | MIC combination [4, 8]: 0.0078 µg/mL | ΣFIC ([4]; Test 12, CD strain NR32885, sum for combination CFM + MET): 0.281 | FIC [4, 18]: 0.25 | MIC combination [4, 18]: 0.062 µg/mL | ΣFIC ([4]; Test 13, CD strain BAA1805 (BI/NAP1/027), sum for combination CFM + VAN): 0.312 | FIC [4, 19]: 0.015 | MIC combination [4, 19]: 0.0039 µg/mL | ΣFIC ([4]; Test 14, CD strain BAA1805 (BI/NAP1/027), sum for combination CFM + MET): 0.031 | FIC [4, 20]: 0.06 | MIC combination [4, 20]: 0.015 µg/mL | ΣFIC ([4]; Test 15, CD strain BAA1805 (BI/NAP1/027), sum for combination CFM + MET): 0.185 | FIC [4, 21]: 0.25 | MIC combination [4, 21]: 0.062 µg/mL | ΣFIC ([4]; Test 16, CD strain BAA1805 (BI/NAP1/027), sum for combination CFM + VAN): 0.5 | FIC [4, 22]: 0.031 | MIC combination [4, 22]: 0.0078 µg/mL | ΣFIC ([4]; Test 17, CD strain BAA1805 (BI/NAP1/027), sum for combination CFM + MET): 0.156 | FIC [4, 9]: 0.5 | MIC combination [4, 9]: 0.125 µg/mL | ΣFIC ([4]; Test 18, CD strain NR32888, sum for combination CFM + VAN): 1
